pIC50: −log10 of the molar value.
Legend:
[1] = tested on: HCV Replicon; assay: HCV Replicon Luciferase Assay; format: cell-based, Hepatitis C virus; settings: Hepatitis C virus; Huh-Luc-Neo cells, 48 h incubation, luciferase reporter; read-out: Replicon Inhibition*, Luciferase
Method: The identification of inhibitors of HCV replication and/or proliferation has been facilitated by the development of a cell-based system to study HCV replication. Inhibition of HCV replication may be performed using the HCV Replicon Assay developed in the laboratories of Bartenschlager (Lohman et al, Science 285, 110-113, 1999) and Rice (Blight et al, Science 290, 1972-1974, 2000). The assay is performed using the Huh-Luc-Neo cell line (Lohman et al, Science 285, 110-113, 1999). Huh-Luc-Neo cells are a human hepatoma cell line (Huh-7) stably expressing a bi-cistronic subgenomic replicon containing the HCV IRES in which the structural proteins of HCV have been deleted and replaced by a construct containing sequences coding for the firefly luciferase reporter gene, the neomycin selectable marker and the EMCV IRES to direct expression of a truncated HCV genome expressing the […] NS3, NS4A, NS4B, NS5A, and NS5B. HCV targets through which inhibitors could act to inhibit replication include the NS3 protease, the helicase/ATPase, NS5A, the NS5B-RNA dependent RNA polymerase, and the HCV IRES.
(§1) Expression of HCV IRES driven luciferase reporter activity and HCV RNA is measured to obtain indirect and direct measures of replication of HCV RNA respectively. Inhibitors of HCV replication and/or proliferation are determined by initially identifying molecules that inhibit expression of the HCV IRES driven luciferase reporter in this HCV Replicon Luciferase Assay. Cell viability assays and control cell based luciferase assays are then run on hits identified in the HCV Replicon Luciferase Assay to eliminate cytoxic compounds and non-specific compounds which act by inhibiting the luciferase enzyme.
(§2) Day 0, Cell Seeding and Compound Treatment: Huh-Luc-Neo Cells are seeded at 25,000/well in an opaque-walled 96 plate with Growth Medium (DMEM phenol red free+PS+2 mM glutamine; 100 μl/well). The compounds to be tested are added to the experimental wells (10 μl/well at 10× assay concentration) and the cells are then incubated (5% CO2, 37° C.) for 48 h.
Day 2, Reagent Preparation and Luciferase Assay: The Bright-Glo Luciferase Assay Buffer (Promega) is thawed and equilibrated to room temperature prior to use. The lyophilized Bright-Glo Luciferase Assay Substrate is equilibrated to room temperature prior to use. 10 ml of Bright-Glo Luciferase Assay Buffer is transferred to 1 vial of Bright-Glo Luciferase Assay Substrate bottle and mixed by gently with a Vortex. 100 μl of Bright-Glo Luciferase Assay reagent (Bright-Glo Luciferase Assay Buffer+Bright-Glo Luciferase Assay Substrate Mixture) is added to each well. The well contents are mixed for 5 min. on an orbital shaker at room temperature to induce cell lysis and the luminescence is then measured using a luminometer. The data is analyzed and IC50s are determined using GraphPad Prism 4 software. Hits validated in the Replicon Luciferase assay have IC50s<8.0 μM and show <30% inhibition of Cell Viability at a compound concentration of 100 μM (Cell Titer Glow Assay, cell viability assay conditions identical to HCV Replicon Luciferase Assay conditions).

[2] = tested on: HCV RNA; assay: HCV Replicon RNA Assay (Taqman); format: cell-based, Hepatitis C virus; settings: Hepatitis C virus; Huh-Luc-Neo cells, compound re-added at 24 h, HCV RNA by quantitative PCR; read-out: Replicon Inhibition*, Taqman
Method: as §1
as §2, with “C.).” for “C.) for 48 h.”
Day 1, Media Change and Compound Treatment: 24 hours after the initial compound treatment the cell culture media is aspirated from the wells and fresh Growth Medium is added (DMEM phenol red free+PS+2 mM glutamine; 100 μl/well). The compounds to be tested are then added to the appropriate experimental wells (10 μl/well at 10× assay concentration) and the cells are then incubated (5% CO2, 37° C.) for an additional 24 hrs.
Day 2, RNA Isolation and cDNA Synthesis: The cells are washed with 1× Phosphate Buffered Saline (PBS) once.
Day 3, Quantitative PCR Based Measurement of HCV RNA (Taqman Assay): Quantitative PCR analysis to measure HCV RNA expression from cDNA synthesized on Day 2 is performed using the ABI 9700 HT Sequence Detection System (Applied Biosystems) as previously described (Lohman et al, Science 285, 110-113, 1999). The data is analyzed and IC50s are determined using GraphPad Prism 4 software. Hits validated in the Replicon RNA Assay have IC50s<8.0 μM and show <30% inhibition of Cell Viability at a compound concentration of 50 μM (Cell Titer Glow Assay, cell viability assay conditions identical to HCV Replicon RNA Assay conditions).

[3] = CellTiter-Glo Cell Viability Assay; format: cell-based, human; settings: human, Huh-Luc-Neo cells, read-out: Cytotoxicity*
Method: as §2, with “ul/well).” for “μl/well).”, “tested for inhibition of cell viability” for “tested”
Day 2, Reagent Preparation and Assay: The CellTiter-Glo Buffer is thawed and equilibrated to room temperature prior to use. The lyophilized CellTiter-Glo Substrate is equilibrated to room temperature prior to use. 10 ml of CellTiter-Glo Buffer is transferred to 1 vial of CellTiter-Glo Substrate and mixed by gently with a Vortex. 100 μl of CellTiter-Glo Assay reagent (CellTiter-Glo Buffer+CellTiter-Glo Substrate Mixture) is added to each well. The well contents are mixed for 5 min. on an orbital shaker at room temperature to induce cell lysis and the luminescence is then measured using a luminometer.

SMILES | pIC50 [1] | pIC50 [2] | IC50 at 48 h [3] [µM]
Cc1ccc(Sc2cc(=O)n(C)c3ncccc23)cc1 [compound 020] | > 6.00 | 5.00 to 6.00 | > 100
COCCOCC(=O)Nc1ccc(Sc2cc(=O)n(C)c3ccccc23)cc1 [compound 021] | > 6.00 | 5.00 to 6.00 | > 100
Cn1c(=O)cc(Sc2ccc(NC(=O)[C@H](Cc3ccccc3)NC(=O)OC(C)(C)C)cc2)c2ccccc21 [compound 022] | 5.00 to 6.00 | 5.00 to 6.00 | > 100
C[C@H](OCc1ccccc1)[C@@H](NC(=O)OC(C)(C)C)C(=O)Nc1ccc(Sc2cc(=O)n(C)c3ccccc23)cc1 [compound 023] | 5.00 to 6.00 | 5.00 to 6.00 | > 100
Cn1c(=O)cc(Sc2ccc(NC(=O)[C@@H](NC(=O)OC(C)(C)C)C3CCCCC3)cc2)c2ccccc21 [compound 024] | > 6.00 | 5.00 to 6.00 | > 100
Cn1c(=O)cc(Sc2ccc(NC(=O)[C@H](Cc3ccc(F)cc3)NC(=O)OC(C)(C)C)cc2)c2ccccc21 [compound 025] | 5.00 to 6.00 | 5.00 to 6.00 | > 100
Cc1ccc2c(c1)c(Sc1ccc(F)cc1)cc(=O)n2C [compound 026] | > 6.00 | > 6.00 | 10 to 100
Cn1c(=O)cc(Sc2ccc(N)cc2)c2ccc(Cl)cc21 [compound 027] | > 6.00 | > 6.00 | 10 to 100
Cc1ccc2c(c1)c(Sc1ccc(Cl)cc1)cc(=O)n2C [compound 028] | > 6.00 | > 6.00 | 10 to 100
COc1ccc2c(c1)c(Sc1ccc(C)cc1)cc(=O)n2C [compound 029] | > 6.00 | > 6.00 | > 100
COc1ccc2c(c1)c(Sc1ccc(N)cc1)cc(=O)n2C [compound 030] | > 6.00 | > 6.00 | 10 to 100
Cc1ccc2c(c1)c(Sc1ccc(Br)cc1)cc(=O)n2C [compound 031] | > 6.00 | > 6.00 | 10 to 100
Cc1ccc(Sc2cc(=O)n(C)c3ccc(C)cc23)cc1 [compound 032] | > 6.00 | > 6.00 | 10 to 100
Cc1ccc2c(c1)c(Sc1ccc(N)cc1)cc(=O)n2C [compound 033] | > 6.00 | > 6.00 | > 100
Cc1ccc(Sc2cc(=O)n(C)c3cc(C)c(C)cc23)cc1 [compound 034] | > 6.00 | > 6.00 | > 100
Cc1cc2c(Sc3ccc(N)cc3)cc(=O)n(C)c2cc1C [compound 035] | > 6.00 | > 6.00 | > 100
Cc1ccc(NC(=S)Nc2ccc(Sc3cc(=O)n(C)c4ccc(C)cc34)cc2)cc1 [compound 036] | 5.00 to 6.00 | 5.00 to 6.00 | > 100
Cc1cc2c(Sc3ccc(F)cc3)cc(=O)n(C)c2cc1C [compound 037] | > 6.00 | > 6.00 | > 100
CCc1ccc2c(c1)c(Sc1ccc(N)cc1)cc(=O)n2C [compound 038] | > 6.00 | > 6.00 | > 100

From patent publication US8143276B2, “4-thio substituted quinoline and naphthyridine compounds” (XTL Biopharmaceuticals Ltd., priority 2007, dated 2012)
